Results as given in patent publication US20040235922A1, “Compositions and methods for inducing adipose tissue cell death” (priority 2003, published 2004).
“Also recorded” adds a separate entry of the source. Structures can show the parent of a compound that is named as a salt. Marks after values point to notes of the source that are not given here.

Key:
[1] = 21 day oral (diet) treatment of mice: body weight, food intake, feed efficiency, body temperature, body composition by PIXImus densitometry (Example 1); type: in vivo; details: 21 days, ICR mice
Protocol: (§1) The effects of clenbuterol, a β2-AR agonist, and ractopamine, a β1/β2-AR agonist, on growth, adiposity and adipose tissue apoptosis in male and female mice have been tested by feeding diets containing control, 200 ppm clenbuterol, or 200 or 800 ppm ractopamine. Food intake (FI) was measured daily; body weight (BW) and temperatures (BT) were measured on days 0, 3, 7, 10, 14, 17, and 20. On day 21 mice were sacrificed, body composition was determined using PIXImus densitometry, and muscle and adipose tissues were collected. There were no treatment effects on BT, FI, BW, feed efficiency or body composition. Retroperitoneal (Rp) and epididymal/parametrial (Epi/Par) fat pad masses were reduced in both 800 ppm ractopamine (40±3 and 207±20 mg, respectively) and clenbuterol (35±7 and 211±22 mg) treated mice compared to control (66±8 and 319±30 mg, p<0.05). Brown adipose tissue (BAT) mass was greater (p<0.05) in clenbuterol treated mice compared to other treatments. Adipose tissue apoptosis (% DNA fragmentation) was increased in Epi/Par fat pads in clenbuterol (5.2+1.1%) and 800 ppm ractopamine (4.1±0.8%) treated mice compared to control (1.7+0.4%, p<0.05).
(§2) Animals: Five week old male (n=20) and female (n=20) ICR mice (Harlan Research Laboratories, Indianapolis, Ind.) were allowed to acclimate for one week prior to the experiment start date. Animals were housed singly in suspended wire cages and were provided ground rodent chow (ProLab® RMH 2500; Purina Mills, St. Louis, Mo.) and water ad libitum. Ambient room temperature was maintained and the light/dark cycle was 0600/1800 hours, respectively. Animals were cared for in accordance with the Guide for the Care and Use of Laboratory Animals (Institute of Laboratory Animal Resources Commission on Life Sciences National Research Council. Guide for the Care and Use of Laboratory Animals. National Academy of Sciences, 1996). Prior to the start of the study, animals were briefly anesthetized with isofluorane and an IPPT-200 transponder (programmable ID and temperature, BMDS, Seaford, Del.) was implanted subcutaneously between the scapulae.
(§3) Materials: Test articles included clenbuterol (Sigma Chemical Company, St. Louis, Mo., item # C5423) and ractopamine hydrochloride—Paylean® 9 (Elanco Animal Health, Indianapolis, Ind.). Clenbuterol is available as a pure product, and ractopamine is readily available as a type A medicated article. Paylean® 9 contains about 20 g ractopamine hydrochloride per kilogram in a ground corncob base. In order to achieve doses of 200 and 800 ppm it was necessary to add about […] of product per kilogram of diet. Control and clenbuterol diets were prepared with about 80 g of alphacel, which is a diluent used to mimic the effect of the corncob in the ractopamine product. The dose of clenbuterol used in this experiment was similar to those used in previous experiments with mice (Agbenyega E T, and Wareham A C. Effect of clenbuterol on skeletal muscle atrophy in mice induced by the glucocorticoid dexamethasone. Comp Biochem Physiol Comp Physiol 1992;102:141-145, Rothwell N. J., and Stock M J. Modification of body composition by clenbuterol in normal and dystrophic (mdx) mice. Biosci Rep 1985;5:755-760, Hyltander A, Svaninger G, and Lundholm K. The effect of clenbuterol on body composition in spontaneously eating tumour-bearing mice. Biosci Rep 1993;13:325-331, Hayes A, and Williams DA. Long-term clenbuterol administration alters the isometric contractile properties of skeletal muscle from normal and dystrophin-deficient mdx mice. Clin Exp Pharmacol Physiol 1994;21:757-765, Dupont-Versteegden EE. Exercise and clenbuterol as strategies to decrease the progression of muscular dystrophy in mdx mice. J Appl Physiol 1996;80:734-741).
Daily Observations: Food intake was measured daily, while body weight and body temperatures were measured on days 0, 3, 7, 10, 14, 17, and 20 at approximately the same time of day (1300 hours) during the treatment period. […]

[2] = tested on: male and female ICR mice; assay: 21 day oral (diet) treatment of mice: selected tissue weights, fat pads, BAT, muscle, organs (Example 1); type: in vivo; details: 21 days; for BAT tissue weight, mean / Biceps tissue weight, mean / Epi/Par tissue weight, mean / Ing tissue weight, mean / Rp tissue weight, mean: male and female mice; for Par weight, mean: females; for Epi weight, mean: males
Protocol: as §1, §2
as §3, with “1996;80:734-741). […]” for “1996;80:734-741).”

[3] = tested on: Epi/Par fat pads (white adipose tissue); assay: Adipose tissue apoptosis assay, % DNA fragmentation (Example 1); type: in vivo, mice; details: 21 days
Protocol: as §2, §3
DNA Isolation and Apoptosis Assay: Only the Epi and Par fat pads had sufficient tissue for the apoptosis assay. Apoptosis was assayed in two ways: DNA isolated from fat tissue was separated into two fractions: fragmented and genomic DNA. First, the fragmented DNA was run on an agarose gel in order to identify a ladder pattern of internucleosomal DNA degradation that is characteristic of apoptosis. Second, apoptosis was quantified as the ratio of fragmented- to total-DNA, multiplied by 100. Briefly, approximately 50 mg of the Epi or Par white adipose tissue was homogenized in lysis buffer (10 mM Tris-HCL, pH 8.0, 10 mM EDTA, pH 8.0; 0.5% Triton X-100) and centrifuged at 14,000× g for 15 min to separate fragmented DNA from genomic DNA. The supernatant, containing fragmented DNA, was extracted with phenol-chloroform-isoamyl alcohol (25:24:1), and the DNA was precipitated by adding polyacryl carrier (Molecular Research Center, Inc., Cincinnati, Ohio) and ethanol. Genomic (non-fragmented) DNA was extracted from the pellet with DNAzol and the polyacryl carrier. DNA in each fraction was quantified by the PicoGreen method (Molecular Probes, Inc., Eugene, Oreg.) and fluorescence was measured using a SpectroMax Gemini (Molecular Devices).
Statistical Analysis: Analysis of variance (SAS) was used to determine significance of treatment and gender effects. […]

[4] = tested on: adipocytes; details: leptin administration; cited from earlier work
[5] = tested on: cardiac myocytes; details: via β1-AR stimulation; cited from earlier work
[6] = 200 ppm clenbuterol, 800 ppm ractopamine in diet, p<0.05, hydrochloride

With `CC(CCc1ccc(O)cc1)NCC(O)c1ccc(O)cc1` (racemic) [Ractopamine, ractopamine hydrochloride] the “Cumulative Feed Intake” value ([1]; 200 ppm in diet) was 5.92 g, the “Densitometry Bone Mineral Content” value ([1]; 200 ppm in diet) was 0.67 g and the “Densitometry Fat” value ([1]; 200 ppm in diet) was 3.00 g. For the same molecule, the “Densitometry Lean” value ([1]; 200 ppm in diet) was 25.63 g, the “Feed Efficiency” value ([1]; 200 ppm in diet) was 15.8 and the “Final Body Weight” value ([1]; 200 ppm in diet) was 31.4 g. For the same molecule, the “Weight Gain” value ([1]; 200 ppm in diet) was 8.25 g, the “Cumulative Feed Intake” value ([1]; 800 ppm in diet) was 6.39 g and the “Densitometry Bone Mineral Content” value ([1]; 800 ppm in diet) was 0.67 g. For the same molecule, the “Densitometry Fat” value ([1]; 800 ppm in diet) was 3.01 g, the “Densitometry Lean” value ([1]; 800 ppm in diet) was 27.42 g and the “Feed Efficiency” value ([1]; 800 ppm in diet) was 16.6. The “Final Body Weight” value ([1]; 800 ppm in diet) was 31.5 g, the “Weight Gain” value ([1]; 800 ppm in diet) was 8.32 g and the “Effect on body temperature, food intake, body weight, feed efficiency, body composition” value ([1]; diet, hydrochloride) was “not significantly affected; also recorded: Neither clenbuterol nor ractopamine affected”. For the same molecule, the “Rp and Epi/Par fat pad weights compared to control” value [2, 6] was “reduced; also recorded: decreased”, the “BAT tissue weight, mean” value ([2]; 200 ppm in diet) was “.096” and the “Biceps tissue weight, mean” value ([2]; 200 ppm in diet) was “.128”. For the same molecule, the “Epi/Par tissue weight, mean” value ([2]; 200 ppm in diet) was “.295”, the “Ing tissue weight, mean” value ([2]; 200 ppm in diet) was “.230” and the “Rp tissue weight, mean” value ([2]; 200 ppm in diet) was “.058”. The “BAT tissue weight, mean” value ([2]; 800 ppm in diet) was “.095”, the “Biceps tissue weight, mean” value ([2]; 800 ppm in diet) was “.158” and the “Epi/Par tissue weight, mean” value ([2]; 800 ppm in diet) was “.207”. For the same molecule, the “Ing tissue weight, mean” value ([2]; 800 ppm in diet) was “.176”, the “Rp tissue weight, mean” value ([2]; 800 ppm in diet) was “.039” and the “Retroperitoneal (Rp) fat pad mass” value ([2]; 800 ppm in diet, mice, control 66±8 mg) was 40 ± 3 mg. The “Epididymal/parametrial (Epi/Par) fat pad mass” value ([2]; 800 ppm in diet, mice, control 319±30 mg) was 207 ± 20 mg, the “Muscle mass / muscle weight, body protein or fat content” value ([2]; diet, ICR mice) was “no effect” and the “Par weight, mean” value ([2]; 200 ppm in diet) was “.22^b”. The “Par weight, mean” value ([2]; 800 ppm in diet) was “.22^b”, the “Epi weight, mean” value ([2]; 200 ppm in diet) was “.36^a” and the “Epi weight, mean” value ([2]; 800 ppm in diet) was “.19^b”. For the same molecule, the “Percent DNA fragmentation (apoptosis) in the Epi/Par fat pad compared to control” value [3, 6] was “significant increase in apoptosis”, the “Adipose tissue apoptosis (% DNA fragmentation) in Epi/Par fat pads” value ([3]; 800 ppm in diet, mice, control 1.7±0.4%) was 4.1±0.8% and the “DNA fragmentation in retroperitoneal or inguinal fat pads” value ([3]; diet, mice) was “Neither clenbuterol nor ractopamine treatments increased”.
In the case of “leptin: leptin, administration shown in previous experiments to increase apoptosis of adipocytes”, the Apoptosis of adipocytes [4] is listed as “increase apoptosis”.
In the case of `NC[C@H](O)c1ccc(O)c(O)c1` [norepinephrine], the “Apoptosis of cardiac myocytes” value [5] is given as “induce apoptosis”.
